According to US20240252488A1 (KOREA RESEARCH INSTITUTE OF CHEMICAL TECHNOLOGY, priority 2020, published 2024):

Legend:
[1] = system: FADD−/− Jurkat cells; assay: Necroptosis inhibition assay, TNF-α-induced necroptosis (CellTiter-Glo 2.0); assay type: cell-based, human; conditions: TNF-α 15 ng/mL, FADD−/− Jurkat cells; for Necroptosis inhibition assay (Rescue %) 1 μM: compound 1 μM; for Necroptosis inhibition assay (Rescue %) 10 μM: compound 10 μM
Method in brief: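 FADD−/− Jurkat cells preincubated 30 min at room temperature with compound at 0.1, 1 and 10 μM final, then stimulated with TNF-α (15 ng/mL final) for 20–24 h at 37 °C, 5% CO2. Viability read as ATP luminescence; cytotoxicity and necroptosis inhibition rate calculated from luminescence values.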

[2] = target: T1, MLKL (Homo sapiens, UniProt Q8NB16); assay: Measurement of binding affinity with MLKL receptor (competitive binding assay, Kd); parameters: made in house; host or cells: HEK 293 cell line (T7 phage in E. coli BL21-derived host is also described)
T1 sequence (Q8NB16 1-471): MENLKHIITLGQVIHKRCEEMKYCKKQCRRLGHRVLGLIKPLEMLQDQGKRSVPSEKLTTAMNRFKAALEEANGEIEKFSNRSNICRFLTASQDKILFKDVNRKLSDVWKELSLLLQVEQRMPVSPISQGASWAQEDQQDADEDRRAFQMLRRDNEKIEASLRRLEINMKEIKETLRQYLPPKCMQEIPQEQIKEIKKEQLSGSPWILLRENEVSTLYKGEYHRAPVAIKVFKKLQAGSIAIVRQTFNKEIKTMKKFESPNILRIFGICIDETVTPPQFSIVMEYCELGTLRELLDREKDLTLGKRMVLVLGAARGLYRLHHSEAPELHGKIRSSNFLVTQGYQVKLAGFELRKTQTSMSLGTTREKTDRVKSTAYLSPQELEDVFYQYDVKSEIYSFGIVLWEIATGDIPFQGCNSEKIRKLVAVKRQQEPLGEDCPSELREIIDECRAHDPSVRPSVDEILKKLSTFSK
Method in brief: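 Competition binding of kinase tagged with DNA for qPCR detection, expressed in HEK 293 cells, against immobilized ligand on beads. Final DMSO 0.9%. Kd derived from kinase amount in eluates measured by qPCR.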

[3] = target: T1, MLKL; assay: MLKL degradation assay in HepG2 cell line (western blot); assay type: cell-based; parameters: endogenous in cells; host or cells: HepG2 or HaCaT; conditions: cell line not given; for Degradation assay (Degradation %) 1 μM: compound 1 μM; for Degradation assay (Degradation %) 10 μM: compound 10 μM
Method in brief: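 HepG2 cells were treated 20-24 h at 37 °C with compound at 1 or 10 μM final. RIPA lysates were normalized by BCA, and 10-15 μg protein per lane was resolved by SDS-PAGE. MLKL was detected by western blot with chemiluminescence.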

Kd [2] [nM] | Degradation assay (Degradation %) 1 μM [3] [%] | Degradation assay (Degradation %) 10 μM [3] [%] | Structure (SMILES) | Necroptosis inhibition assay (Rescue %) 1 μM [1] [%] | Necroptosis inhibition assay (Rescue %) 10 μM [1] [%]
1.6 | 81.20 | 71.90 | Nc1ncc(-c2cnn(C3CCN(C(=O)C4CCN(C(=O)C5CN(c6ccc7nnn(C8CCC(=O)NC8=O)c(=O)c7c6)C5)CC4)CC3)c2)nc1C(=O)O[C@@H](C(=O)Nc1ccc(F)cc1)c1ccccc1 (stereo partly drawn) [TDH-409, (R)-2-((4-fluorophenyl)amino)-2-oxo-1-phenylethyl 3-amino-6-(1-(1-(1-(1-(3-(2,6-dioxopiperidin-3-yl)-4-oxo-3,4-dihydrobenzo[d][1,2,3]triazin-6-yl)azetidine-3-carbonyl)piperidine-4-carbonyl)piperidin-4-yl)-1H-pyrazol-4-yl)pyrazine-2-carboxylate] | 39.62 | 24.45
1.1 | 85.29 | 65.91 | Nc1ncc(-c2cnn(C3CCN(C(=O)C4CCN(C(=O)C5CCN(c6ccc7nnn(C8CCC(=O)NC8=O)c(=O)c7c6)CC5)CC4)CC3)c2)nc1C(=O)O[C@@H](C(=O)Nc1ccc(F)cc1)c1ccccc1 (stereo partly drawn) [TDH-410, (R)-2-((4-fluorophenyl)amino)-2-oxo-1-phenylethyl 3-amino-6-(1-(1-(1-(1-(3-(2,6-dioxopiperidin-3-yl)-4-oxo-3,4-dihydrobenzo[d][1,2,3]triazin-6-yl)piperidine-4-carbonyl)piperidine-4-carbonyl)piperidin-4-yl)-1H-pyrazol-4-yl)pyrazine-2-carboxylate] | 48.51 | 27.36
5.7 | 53.86 | 44.78 | Nc1ncc(-c2cnn(C3CCN(C(=O)CC4CCN(C(=O)CNc5cccc6nnn(C7CCC(=O)NC7=O)c(=O)c56)CC4)CC3)c2)nc1C(=O)O[C@@H](C(=O)Nc1ccc(F)cc1)c1ccccc1 (stereo partly drawn) [TDH-411, (R)-2-((4-fluorophenyl)amino)-2-oxo-1-phenylethyl 3-amino-6-(1-(1-(2-(1-((3-(2,6-dioxopiperidin-3-yl)-4-oxo-3,4-dihydrobenzo[d][1,2,3]triazin-5-yl)glycyl)piperidin-4-yl)acetyl)piperidin-4-yl)-1H-pyrazol-4-yl)pyrazine-2-carboxylate] | 9.91 | 10.81
2.5 | 72.66 | 72.89 | Nc1ncc(-c2cnn(C3CCN(C(=O)CC4CCN(C(=O)C5CCN(c6cccc7nnn(C8CCC(=O)NC8=O)c(=O)c67)CC5)CC4)CC3)c2)nc1C(=O)O[C@@H](C(=O)Nc1ccc(F)cc1)c1ccccc1 (stereo partly drawn) [TDH-412, (R)-2-((4-fluorophenyl)amino)-2-oxo-1-phenylethyl 3-amino-6-(1-(1-(2-(1-(1-(3-(2,6-dioxopiperidin-3-yl)-4-oxo-3,4-dihydrobenzo[d][1,2,3]triazin-5-yl)piperidine-4-carbonyl)piperidin-4-yl)acetyl)piperidin-4-yl)-1H-pyrazol-4-yl)pyrazine-2-carboxylate] | 24.36 | 29.48
0.92 | 71.41 | 57.83 | Nc1ncc(-c2cnn(C3CCN(C(=O)C4CCN(C(=O)CNc5cccc6nnn(C7CCC(=O)NC7=O)c(=O)c56)CC4)CC3)c2)nc1C(=O)O[C@@H](C(=O)Nc1ccc(F)cc1)c1ccccc1 (stereo partly drawn) [TDH-413, (R)-2-((4-fluorophenyl)amino)-2-oxo-1-phenylethyl 3-amino-6-(1-(1-(1-((3-(2,6-dioxopiperidin-3-yl)-4-oxo-3,4-dihydrobenzo[d][1,2,3]triazin-5-yl)glycyl)piperidine-4-carbonyl)piperidin-4-yl)-1H-pyrazol-4-yl)pyrazine-2-carboxylate] | 24.79 | 18.59
0.79 | 75.28 | 74.89 | Nc1ncc(-c2cnn(C3CCN(C(=O)C4CCN(C(=O)C5CCN(c6cccc7nnn(C8CCC(=O)NC8=O)c(=O)c67)CC5)CC4)CC3)c2)nc1C(=O)O[C@@H](C(=O)Nc1ccc(F)cc1)c1ccccc1 (stereo partly drawn) [TDH-414, (R)-2-((4-fluorophenyl)amino)-2-oxo-1-phenylethyl 3-amino-6-(1-(1-(1-(1-(3-(2,6-dioxopiperidin-3-yl)-4-oxo-3,4-dihydrobenzo[d][1,2,3]triazin-5-yl)piperidine-4-carbonyl)piperidine-4-carbonyl)piperidin-4-yl)-1H-pyrazol-4-yl)pyrazine-2-carboxylate] | 17.52 | 13.19
1.7 | 89.91 | 90.14 | Nc1ncc(-c2cnn(C3CCN(C(=O)CCC4CCN(C(=O)COc5cccc6c5C(=O)N(C5CCC(=O)NC5=O)C6=O)CC4)CC3)c2)nc1C(=O)O[C@@H](C(=O)Nc1ccc(F)cc1)c1ccccc1 (stereo partly drawn) [TDH-415, (R)-2-((4-fluorophenyl)amino)-2-oxo-1-phenylethyl 3-amino-6-(1-(1-(3-(1-(2-((2-(2,6-dioxopiperidin-3-yl)-1,3-dioxoisoindolin-4-yl)oxy)acetyl)piperidin-4-yl)propanoyl)piperidin-4-yl)-1H-pyrazol-4-yl)pyrazine-2-carboxylate] | 41.74 | 40.81
2.4 | 93.24 | 93.04 | Nc1ncc(-c2cnn(C3CCN(C(=O)CCC4CCN(C(=O)COc5ccc6c(c5)C(=O)N(C5CCC(=O)NC5=O)C6=O)CC4)CC3)c2)nc1C(=O)O[C@@H](C(=O)Nc1ccc(F)cc1)c1ccccc1 (stereo partly drawn) [TDH-416, (R)-2-((4-fluorophenyl)amino)-2-oxo-1-phenylethyl 3-amino-6-(1-(1-(3-(1-(2-((2-(2,6-dioxopiperidin-3-yl)-1,3-dioxoisoindolin-5-yl)oxy)acetyl)piperidin-4-yl)propanoyl)piperidin-4-yl)-1H-pyrazol-4-yl)pyrazine-2-carboxylate] | 52.88 | 43.06
3.5 | 87.84 | 63.85 | Nc1ncc(-c2cnn(C3CCN(C(=O)CCC4CCN(C(=O)C5CCN(c6cccc7c6C(=O)N(C6CCC(=O)NC6=O)C7=O)CC5)CC4)CC3)c2)nc1C(=O)O[C@@H](C(=O)Nc1ccc(F)cc1)c1ccccc1 (stereo partly drawn) [TDH-417, (R)-2-((4-fluorophenyl)amino)-2-oxo-1-phenylethyl 3-amino-6-(1-(1-(3-(1-(1-(2-(2,6-dioxopiperidin-3-yl)-1,3-dioxoisoindolin-4-yl)piperidine-4-carbonyl)piperidin-4-yl)propanoyl)piperidin-4-yl)-1H-pyrazol-4-yl)pyrazine-2-carboxylate] | 24.41 | 14.37
4 | 79.05 | 58.33 | Nc1ncc(-c2cnn(C3CCN(C(=O)CCC4CCN(C(=O)C5CCN(c6ccc7c(c6)C(=O)N(C6CCC(=O)NC6=O)C7=O)CC5)CC4)CC3)c2)nc1C(=O)O[C@@H](C(=O)Nc1ccc(F)cc1)c1ccccc1 (stereo partly drawn) [TDH-418, (R)-2-((4-fluorophenyl)amino)-2-oxo-1-phenylethyl 3-amino-6-(1-(1-(3-(1-(1-(2-(2,6-dioxopiperidin-3-yl)-1,3-dioxoisoindolin-5-yl)piperidine-4-carbonyl)piperidin-4-yl)propanoyl)piperidin-4-yl)-1H-pyrazol-4-yl)pyrazine-2-carboxylate] | 28.11 | 17.31
5.9 | 82.06 | 64.50 | Nc1ncc(-c2cnn(C3CCN(C(=O)CCC4CCN(c5cccc6c5C(=O)N(C5CCC(=O)NC5=O)C6=O)CC4)CC3)c2)nc1C(=O)O[C@@H](C(=O)Nc1ccc(F)cc1)c1ccccc1 (stereo partly drawn) [TDH-419, (R)-2-((4-fluorophenyl)amino)-2-oxo-1-phenylethyl 3-amino-6-(1-(1-(3-(1-(2-(2,6-dioxopiperidin-3-yl)-1,3-dioxoisoindolin-4-yl)piperidin-4-yl)propanoyl)piperidin-4-yl)-1H-pyrazol-4-yl)pyrazine-2-carboxylate] | 26.56 | 18.52
